This is an account of results in US20100029755A1, “P-Glycoprotein inhibitor comprising octilonium bromide as an effective ingredient” (priority 2002, published 2010).

The test system of data set [1] is p-glycoprotein. Particulars: SD, rat, 1 h, 10 μg/ml, pH 6.4.
Data set [2] concerns p-glycoprotein. Particulars: SD, rat, 1 h, pH 6.4.
For data set [3] the following is noted: administered orally; cited from earlier work.

Read-outs that look alike come from different tables or passages of the source.

For the compound `CCCCCCCCOc1ccccc1C(=O)Nc1ccc(C(=O)OCC[N+](C)(CC)CC)cc1` [octylonium bromide], in data set [1], the “absorbed rhodamine 123 as % of the total applied amount” value worked out at 14.5%, the “amount of the absorbed rhodamine 123” value turned out to be 4.3 μg/g tissue and the “increase of the amount of absorbed rhodamine by octylonium bromide” value was found to be 4.5 folds. In addition, in data set [2] (200 μg/ml), the “absorbed amount of the doxorubicin” value stood at 11 μg/g tissue, the “absorbed doxorubicin as % of the total applied amount” value amounted to 3.3% and the “increase of the amount of absorbed doxorubicin by octylonium bromide” value turned out to be 28 folds. In data set [3], the “fraction of octylonium bromide absorbed systemically” value is on record as 5% and the “fraction of octylonium bromide remaining in the gastrointestinal tract” value is listed as 95%.
Regarding `COc1cccc2c1C(=O)c1c(O)c3c(c(O)c1C2=O)C[C@@](O)(C(=O)CO)C[C@@H]3O[C@H]1C[C@H](N)[C@H](O)[C@H](C)O1` [doxorubicin], in data set [2] (50 μg/ml), the “absorbed amount of the doxorubicin” value was 0.4 μg/g tissue and the “absorbed doxorubicin as % of the total applied amount” value is recorded as 0.12%.
